Measured values published in article PMC6825211 (Nature Communications, 2019).
Values joined by “and” are separate entries in the source; they are usually repeats but may differ in a detail not shown here. Identical values can stand only once.

How the values were obtained:
[1] = test system: obese diabetic Lepr db/db mice; experiment: db/db model: nuclear PDX1-positive β-cells; format: in vivo, mouse; conditions: for PDX1 %/mouse: dbdb mice
From the text: Data are representative of six mice per group (n = 6 for (a–f)). g–j Mice were killed at day 31. g β-cell mass (given as percentage of the whole pancreatic section from ten sections spanning the width of the pancreas; n = 5 mice/group) and quantitative analyses from triple stainings for (h) TUNEL, (i) Ki67, (j) pHH3, and (k) nuclear PDX1 expression, insulin, and DAPI expressed as percentage of TUNEL-, Ki67-, pHH3-, or nuclear PDX1-positive β-cells ± SEM. An average number of 13667 (h), 5937 (i), 7108 (j), or 4330 (k) β-cells were counted from n = 3–5 (h, i, k) or n = 5–6 (j) mice/group.
Mouse pancreases were dissected and fixed in 4% formaldehyde at 4 °C for 12 h before embedding in paraffin[62]. Two-four-micrometer sections were deparaffinized, rehydrated, and incubated overnight at 4 °C with anti-PDX-1 (Abcam; #47267), anti-Glut2 (Chemicon; #07-1402), anti-Ki67 (Dako; #M7249), anti-phospho-Histone H3 (Ser10; Merck #06-570), and anti-NKX6.1 (DSHB, University of Iowa #F55A12[66]) in combination with TSA (Invitrogen #T30955), or for 2 h at room temperature with anti-insulin (Dako; A0546) antibodies (all at a dilution of 1:100, except anti-PDX-1, which was diluted 1:400) followed by fluorescein isothiocyanate (FITC)- or Cy3-conjugated secondary antibodies (Jackson ImmunoResearch Laboratories, West Grove, PA). Slides were mounted with Vectashield with 4′6-diamidino-2-phenylindole (DAPI) (Vector Labs). β-cell apoptosis was analyzed by the terminal deoxynucleotidyl transferase-mediated dUTP nick-end labeling (TUNEL) technique according to the manufacturer’s instructions (In Situ Cell Death Detection Kit, TMR red; Roche) and double stained for insulin. Fluorescence was analyzed by using a Nikon MEA53200 (Nikon GmbH, Dusseldorf, Germany) microscope, and images were acquired by using NIS-Elements software (Nikon).

[2] = test system: panel of 50 serine, threonine, and tyrosine kinases; experiment: Nanosyn panel of 50 biochemical kinase assays; conditions: 10 µM, of 50 kinases
[3] = test system: isolated islets from WT mice; experiment: β-cell apoptosis (TUNEL/insulin) under diabetogenic conditions, WT islets
db/db model: body weight = conditions: 5 mg/kg i.p. daily, 31 days
NEK2 = NEK2 (Homo sapiens, UniProt P51955); experiment: Nanosyn kinase profiling, mobility shift assay; conditions: read-out: % inhibition by neratinib
MLD–STZ C57BL/6J mice [4] = experiment: MLD–STZ model: insulin secretion during ipGTT (stimulatory index); format: in vivo, mouse; conditions: glucose-stimulated, i.p.
Experimental: (§1) C57Bl/6J mice were injected with 40 mg/kg streptozotocin or citrate buffer for 5 consecutive days. […] In d, basal glucose values were normalized to 100%. e Insulin secretion measured from retro-orbital blood draw during an ipGTT measured before (0 min) and 15 min after glucose injection; data are expressed as the ratio of secreted insulin at 15 min/0 min (stimulatory index). f The ratio of secreted insulin and glucose is calculated at fed state. g–i Mice were killed at day 35. g β-cell mass (given as percentage of the whole pancreatic section from ten sections spanning the width of the pancreas) and quantitative analyses from triple staining for h TUNEL or i Ki67, insulin, and DAPI expressed as percentage of TUNEL- or Ki67-positive β-cells ±SEM. An average number of 2331 (h), or 26369 (i) β-cells were counted. n = 9 mice/group for (a); n = 4–12 for (b); n = 5–15 for (c) and (d); n = 12–19 for (e); n = 8–14 for (f); n = 4–9 for (g); n = 4–11 for (h); and n = 6–11 mice/groupfor (i); all from three independent experiments).
For intraperitoneal glucose tolerance tests, mice were fasted 12 h overnight and injected i.p. with glucose (40%; B.Braun, Melsungen, Germany) at a dose of 1 g/kg body weight. […] Insulin secretion was measured before (0 min) and after (15 and 30 min) i.p. injection of glucose (2 g/kg) and measured by using ultrasensitive mouse Elisa kit (ALPCO Diagnostics, Salem, NH).

[5] = test system: isolated islets from WT C57Bl/6 mice; experiment: β-cell apoptosis (TUNEL), WT islets, IL-1β/IFNγ 72 h, neratinib added for last 24 h; format: cell-based, mouse; conditions: for TUNEL%: Cytokines+Nera
PDK1 = PDK1 (Homo sapiens, UniProt O15530); experiment: Nanosyn kinase profiling, mobility shift assay; conditions: read-out: % inhibition by neratinib
PI3-KINASE-ALPHA = PI3-KINASE-ALPHA (Homo sapiens, UniProt P42336); experiment: Nanosyn kinase profiling, mobility shift assay; conditions: read-out: % inhibition by neratinib
MLD–STZ C57BL/6J mice [6] = experiment: MLD–STZ model: intraperitoneal insulin tolerance test (ipITT); format: in vivo, mouse; parameters: ipITT glucose: unit not given here
Experimental: as §1
For intraperitoneal glucose tolerance tests, mice were fasted 12 h overnight and injected i.p. with glucose (40%; B.Braun, Melsungen, Germany) at a dose of 1 g/kg body weight. Blood samples were obtained at time points 0, 15, 30, 60, 90, and 120 min for glucose measurements by using a Glucometer. For i.p. insulin tolerance tests, mice were injected with 0.75 U/kg body weight recombinant human insulin (Novolin, Novo Nordisk) after 4–5-h fasting, and glucose concentration was determined with the Glucometer. Insulin secretion was measured before (0 min) and after (15 and 30 min) i.p. injection of glucose (2 g/kg) and measured by using ultrasensitive mouse Elisa kit (ALPCO Diagnostics, Salem, NH).

Chain of PI3-KINASE-ALPHA (P42336 whole entry): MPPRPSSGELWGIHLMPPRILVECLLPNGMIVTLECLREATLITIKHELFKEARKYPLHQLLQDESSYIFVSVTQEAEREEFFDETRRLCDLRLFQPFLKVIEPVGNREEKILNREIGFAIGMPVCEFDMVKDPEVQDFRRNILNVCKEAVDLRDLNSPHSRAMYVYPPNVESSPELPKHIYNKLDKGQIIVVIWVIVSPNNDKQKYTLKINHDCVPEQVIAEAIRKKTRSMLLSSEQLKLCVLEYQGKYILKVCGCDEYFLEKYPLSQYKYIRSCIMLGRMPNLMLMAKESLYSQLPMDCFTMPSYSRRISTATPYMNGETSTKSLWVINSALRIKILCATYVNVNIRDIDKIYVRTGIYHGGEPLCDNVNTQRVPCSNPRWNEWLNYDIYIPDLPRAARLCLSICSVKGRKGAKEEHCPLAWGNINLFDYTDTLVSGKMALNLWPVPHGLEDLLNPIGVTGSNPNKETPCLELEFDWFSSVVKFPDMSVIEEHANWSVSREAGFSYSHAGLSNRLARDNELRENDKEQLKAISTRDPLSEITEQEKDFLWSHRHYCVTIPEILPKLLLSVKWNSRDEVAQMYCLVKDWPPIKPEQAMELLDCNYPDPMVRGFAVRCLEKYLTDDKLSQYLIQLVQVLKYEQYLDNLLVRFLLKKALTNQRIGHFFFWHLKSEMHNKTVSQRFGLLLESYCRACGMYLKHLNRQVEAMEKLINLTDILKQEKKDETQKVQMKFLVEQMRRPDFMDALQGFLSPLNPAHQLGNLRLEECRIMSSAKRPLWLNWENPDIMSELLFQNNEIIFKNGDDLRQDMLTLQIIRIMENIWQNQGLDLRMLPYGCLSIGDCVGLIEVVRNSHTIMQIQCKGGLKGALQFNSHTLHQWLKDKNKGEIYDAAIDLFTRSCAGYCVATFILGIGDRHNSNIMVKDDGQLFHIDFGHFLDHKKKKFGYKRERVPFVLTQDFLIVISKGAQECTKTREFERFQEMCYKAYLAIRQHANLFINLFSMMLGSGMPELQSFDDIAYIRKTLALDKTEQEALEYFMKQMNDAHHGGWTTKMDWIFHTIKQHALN
Chain of PI3-KINASE-ALPHA (P27986 whole entry partner): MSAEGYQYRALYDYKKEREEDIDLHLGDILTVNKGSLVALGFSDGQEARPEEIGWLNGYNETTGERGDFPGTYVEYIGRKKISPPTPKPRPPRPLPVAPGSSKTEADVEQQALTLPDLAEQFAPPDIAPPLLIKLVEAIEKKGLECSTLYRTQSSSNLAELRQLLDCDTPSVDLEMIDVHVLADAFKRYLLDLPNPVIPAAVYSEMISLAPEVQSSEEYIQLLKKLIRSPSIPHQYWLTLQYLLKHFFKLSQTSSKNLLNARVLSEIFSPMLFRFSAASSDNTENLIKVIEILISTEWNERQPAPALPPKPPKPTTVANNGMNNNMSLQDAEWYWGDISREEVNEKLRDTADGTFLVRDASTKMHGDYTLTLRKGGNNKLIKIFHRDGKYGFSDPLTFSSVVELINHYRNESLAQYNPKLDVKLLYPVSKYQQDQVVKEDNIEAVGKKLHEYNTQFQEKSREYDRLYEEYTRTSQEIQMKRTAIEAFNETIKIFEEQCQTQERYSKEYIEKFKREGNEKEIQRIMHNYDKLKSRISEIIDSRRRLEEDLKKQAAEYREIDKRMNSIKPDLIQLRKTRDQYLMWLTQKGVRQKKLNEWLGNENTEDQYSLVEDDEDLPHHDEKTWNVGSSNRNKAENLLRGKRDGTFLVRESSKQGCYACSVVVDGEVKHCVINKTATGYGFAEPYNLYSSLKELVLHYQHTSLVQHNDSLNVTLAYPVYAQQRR
Chain of PDK1 (O15530 whole entry): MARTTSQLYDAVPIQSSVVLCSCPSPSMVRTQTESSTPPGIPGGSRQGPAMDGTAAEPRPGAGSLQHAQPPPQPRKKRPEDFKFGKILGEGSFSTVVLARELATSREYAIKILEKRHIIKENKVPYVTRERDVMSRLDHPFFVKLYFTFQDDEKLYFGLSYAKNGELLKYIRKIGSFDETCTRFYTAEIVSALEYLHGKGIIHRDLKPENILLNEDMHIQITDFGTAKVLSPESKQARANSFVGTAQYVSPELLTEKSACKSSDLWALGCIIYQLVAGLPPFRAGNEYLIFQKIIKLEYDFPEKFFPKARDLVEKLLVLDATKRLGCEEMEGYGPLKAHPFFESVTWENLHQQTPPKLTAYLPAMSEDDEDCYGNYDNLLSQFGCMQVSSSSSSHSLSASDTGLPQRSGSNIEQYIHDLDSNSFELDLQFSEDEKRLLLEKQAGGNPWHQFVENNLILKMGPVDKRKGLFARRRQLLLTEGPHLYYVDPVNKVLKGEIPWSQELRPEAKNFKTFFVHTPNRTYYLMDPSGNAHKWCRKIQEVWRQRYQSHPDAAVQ
Chain of NEK2 (P51955 whole entry): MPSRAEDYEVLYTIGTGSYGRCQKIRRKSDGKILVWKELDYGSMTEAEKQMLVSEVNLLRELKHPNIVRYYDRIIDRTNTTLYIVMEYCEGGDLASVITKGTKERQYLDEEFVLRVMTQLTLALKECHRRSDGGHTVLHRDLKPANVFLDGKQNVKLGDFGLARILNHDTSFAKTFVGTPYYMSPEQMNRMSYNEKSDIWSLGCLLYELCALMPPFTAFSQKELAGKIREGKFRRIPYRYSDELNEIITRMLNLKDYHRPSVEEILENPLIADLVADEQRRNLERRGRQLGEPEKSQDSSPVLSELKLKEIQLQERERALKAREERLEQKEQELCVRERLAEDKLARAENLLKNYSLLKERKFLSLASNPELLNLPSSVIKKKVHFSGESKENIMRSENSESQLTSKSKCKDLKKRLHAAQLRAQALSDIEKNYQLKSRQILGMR

## CCOc1cc2ncc(C#N)c(Nc3ccc(OCc4ccccn4)c(Cl)c3)c2cc1NC(=O)/C=C/CN(C)C [neratinib]
[1]; db/db, day 31
  nuclear PDX1: enhanced
[1]; Mean
  PDX1 %/mouse: 57.3127%
[1]; individual mice
  PDX1 %/mouse: 48.8372% and 71.3415% and 51.7595%
[2]
  number of kinases with >50% of inhibition: 16
[3]; 10 μM, 72 h
  cytokine- and glucolipotoxicity-induced apoptosis in WT islets: reduced cytokine- and glucolipotoxicity-induced apoptosis
[3]; WT HG/Pal Nera 10 μM 72 h, mean
  mean TUNEL/isolation/%: 370.621%
[3]; WT HG/Pal Nera 10 μM 72 h, single isolations, WT untreated = 100
  mean TUNEL/isolation/%: 424.349% and 323.811% and 387.381% and 346.941%
[3]; WT ILIF Nera 10 μM 72 h, mean
  mean TUNEL/isolation/%: 814.399%
db/db model: body weight
  body weight: no influence on body weight
NEK2
  inhibition at 10 µM: 68%
MLD–STZ C57BL/6J mice [4]
  impaired insulin secretion in STZ-treated mice: significantly improved
[5]; MEAN
  TUNEL%: 0.4111%
[5]; individual replicates
  TUNEL%: 0.4072% and 0.3399% and 0.4861%
[5]; IL-1β/IFNγ 48 h, then 10 μM neratinib another 24 h
  β-cell survival after cytokine-induced apoptosis: fully restored β-cell survival
PDK1
  inhibition at 10 µM: 6%
PI3-KINASE-ALPHA
  inhibition at 10 µM: 18%
MLD–STZ C57BL/6J mice [6]; MLD–STZ study
  insulin sensitivity (normalized glucose levels): neither neratinib nor STZ had a significant effect
MLD–STZ C57BL/6J mice [6]; NeraCtr, 0 min, Mean
  ipITT glucose: 130.4
MLD–STZ C57BL/6J mice [6]; NeraCtr, 0 min after ins
  ipITT glucose normalized to 100, MEAN: 100
MLD–STZ C57BL/6J mice [6]; NeraCtr, 0 min after ins, individual mice
  ipITT glucose: 135 and 120 and 117 and 132 and 148
MLD–STZ C57BL/6J mice [6]; NeraCtr, 15 min, Mean
  ipITT glucose: 84.6
MLD–STZ C57BL/6J mice [6]; NeraCtr, 15 min after ins
  ipITT glucose normalized to 100, MEAN: 64.88
MLD–STZ C57BL/6J mice [6]; NeraCtr, 15 min after ins, individual mice
  ipITT glucose: 94 and 83 and 116 and 55 and 75
MLD–STZ C57BL/6J mice [6]; NeraCtr, 30 min, Mean
  ipITT glucose: 84.4
MLD–STZ C57BL/6J mice [6]; NeraCtr, 30 min after ins
  ipITT glucose normalized to 100, MEAN: 64.72
MLD–STZ C57BL/6J mice [6]; NeraCtr, 30 min after ins, individual mice
  ipITT glucose: 80 and 67 and 123 and 71 and 81
MLD–STZ C57BL/6J mice [6]; NeraCtr, 60 min, Mean
  ipITT glucose: 82.8
MLD–STZ C57BL/6J mice [6]; NeraCtr, 60 min after ins
  ipITT glucose normalized to 100, MEAN: 63.5
MLD–STZ C57BL/6J mice [6]; NeraCtr, 60 min after ins, individual mice
  ipITT glucose: 84 and 80 and 121 and 48 and 81
MLD–STZ C57BL/6J mice [6]; NeraCtr, 90 min, Mean
  ipITT glucose: 89
MLD–STZ C57BL/6J mice [6]; NeraCtr, 90 min after ins
  ipITT glucose normalized to 100, MEAN: 68.25
MLD–STZ C57BL/6J mice [6]; NeraCtr, 90 min after ins, individual mice
  ipITT glucose: 90 and 87 and 129 and 52
MLD–STZ C57BL/6J mice [6]; NeraSTZ, 0 min, Mean
  ipITT glucose: 286.636
MLD–STZ C57BL/6J mice [6]; NeraSTZ, 0 min after ins
  ipITT glucose normalized to 100, MEAN: 100
MLD–STZ C57BL/6J mice [6]; NeraSTZ, 0 min after ins, individual mice
  ipITT glucose: 462 and 369 and 228 and 215 and 295 and 196 and 335 and 337 and 212 and 296 and 208
MLD–STZ C57BL/6J mice [6]; NeraSTZ, 15 min, Mean
  ipITT glucose: 267.636
MLD–STZ C57BL/6J mice [6]; NeraSTZ, 15 min after ins
  ipITT glucose normalized to 100, MEAN: 93.37
MLD–STZ C57BL/6J mice [6]; NeraSTZ, 15 min after ins, individual mice
  ipITT glucose: 244 and 341 and 151 and 180 and 262 and 206 and 353 and 362 and 225 and 333 and 287
MLD–STZ C57BL/6J mice [6]; NeraSTZ, 30 min, Mean
  ipITT glucose: 187.273
MLD–STZ C57BL/6J mice [6]; NeraSTZ, 30 min after ins
  ipITT glucose normalized to 100, MEAN: 65.33
MLD–STZ C57BL/6J mice [6]; NeraSTZ, 30 min after ins, individual mice
  ipITT glucose: 114 and 186 and 102 and 127 and 207 and 173 and 304 and 307 and 97 and 216 and 227
MLD–STZ C57BL/6J mice [6]; NeraSTZ, 60 min, Mean
  ipITT glucose: 132.545
MLD–STZ C57BL/6J mice [6]; NeraSTZ, 60 min after ins
  ipITT glucose normalized to 100, MEAN: 46.24
MLD–STZ C57BL/6J mice [6]; NeraSTZ, 60 min after ins, individual mice
  ipITT glucose: 123 and 110 and 79 and 95 and 108 and 169 and 231 and 87 and 198 and 150
MLD–STZ C57BL/6J mice [6]; NeraSTZ, 90 min, Mean
  ipITT glucose: 132.455
MLD–STZ C57BL/6J mice [6]; NeraSTZ, 90 min after ins
  ipITT glucose normalized to 100, MEAN: 46.21
MLD–STZ C57BL/6J mice [6]; NeraSTZ, 90 min after ins, individual mice
  ipITT glucose: 174 and 97 and 79 and 135 and 116 and 100 and 155 and 203 and 103 and 136 and 159
